Key:
Format in all cases: functional, cell-based
HT-29 = assay: Cytotoxicity was measured against neoplastic cultured HT-29 cells of human colon carcinoma.
SK-MEL-28 = assay: Cytotoxicity was measured against neoplastic cultured MEL-28 cells of malign human melanoma.
P388 = assay: Cytotoxicity was measured against neoplastic cultured P-388 cells of murine leukemia.; conditions: Mus musculus
A549 = assay: Cytotoxicity was measured against neoplastic cultured A-549 cells of human lung carcinoma.

SMILES | IC50 (HT-29) [µM] | IC50 (SK-MEL-28) [µM] | IC50 (P388) [µM] | IC50 (A549) [µM]
CC(C)=CCCC1=CCC2=C(C1)C(=O)C=CC2=O | 2.1 | 2.1 | 1 | 2.1
CC(C)=CCCc1ccc2c(c1)C(=O)C(C)=CC2=O | 19.6 | 9.8 | 3.9 | 3.9
CC(=O)Oc1ccc(OC(C)=O)c2c1CC=C(CCC=C(C)C)C2 | 3.6 | 3.6 | 1.5 | 3.6
CC1=CCC[C@H]2[C@](C)(CC3=CC(=O)C=CC3=O)[C@@H](C)CC[C@]12C [AVARONE] | 6 | 6 | 3.1 | 6
CC(C)=CCCC1=CCc2c(O)ccc(O)c2C1 | 4.9 | 4.9 | 2.1 | 4.9
CC(C)=CCCC1=CCc2c(O)cc(C)c(O)c2C1 | 19.4 | 19.4 | 3.8 | 3.8
CC(=O)Oc1cc(C)c(OC(C)=O)c2c1CC=C(CCC=C(C)C)C2 | 14.6 | 14.6 | 2.9 | 2.9
CC(C)=CCCC1=CCC2C(=O)c3ccccc3C(=O)C2C1 (stereo not given) | > 34 | > 34 | 8.5 | 8.5
CC(C)=CCCc1ccc2c(c1)C(=O)C=CC2=O | 1 | 0.4 | 0.4 | 1
O=C1C=CC(=O)c2ccccc21 [NAPHTHOQUINONE] | > 63.2 | > 63.2 | > 63.2 | > 63.2
CC(C)=CCCC1=CCC2=C(C1)C(=O)C(C)=CC2=O | 19.5 | 9.8 | 3.9 | 3.9
CC(=O)Oc1cc(C)c(OC(C)=O)c2cc(CCC=C(C)C)ccc12 | 7.3 | 3.5 | 2.9 | 1.5
CC1=CCC[C@H]2[C@](C)(Cc3cc(O)ccc3O)[C@@H](C)CC[C@]12C [AVAROL] | 6 | 6 | 3.1 | 6
CC(C)=CCCC1=CCC2=C(C1)C(=O)c1ccccc1C2=O | > 34 | > 34 | 17 | 17
O=C1C=CC(=O)C=C1 [BENZOQUINONE] | 46.2 | 46.2 | 11.1 | 46.2

Source: ChEMBL document CHEMBL1151602, “Synthesis and bioactivity of new antineoplastic terpenylquinones” (Bioorg Med Chem Lett, 1996)
